According to patent US11553718B2, “Mic reduction with lithium ions” (priority 2014, dated 2023):
Several values for one entry are separate records, joined by “and”; a condition that tells them apart may be missing. Equal entries are not always repeated. Where two headings read alike, the source gives them in different places. One block for each compound: values may come before it.

Columns and labels:
bacterial strain rOmyAK = experiment: microbe, parasite or virus in culture; assay type: cell-based, Pseudomonas mendocina; details: for MIC: Thioalkalivibrio paradoxus, read-out: MIC active/aequeous, rOmyAK; for MIC ratio (MICwithout Li/MICLi): rOmyAK
Method: (§1) When not otherwise indicated, the quoted bacterial counts (values are in cfu/plate) in the Tables here below are determined after 2 days following plate-out and incubation at 30° C. The counting method was as follows. The aqueous preparations were stirred well with a cotton swap (e.g. Applimed SA, No. 1102245); the excess aqueous preparation was removed by dipping it gently to the side of the aqueous preparation container, leaving approximately 200 mg of aqueous preparation on the swap. […] TSA plates were then incubated for 48 h at 30° C. Colony forming units (cfu) were then counted and reported as cfu/plate. Counts from 100 to 999 cfu per plate are reported as ≥100 cfu/plate. Counts of 1000 cfu and above per plate are reported as ≥1000 cfu/plate. Yeast and moulds were counted as described for bacteria with the following exceptions, a) Sabouraud Dextrose Agar (SDA) containing Chloramphenicol (e.g. heipha Dr. Miller GmbH, No. 1460030020) were used instead of TSA, b) SDA plates were incubated at 25° for 5 days and c) cfu were counted and reported after 48 h and 5 days of incubation. Yeast and moulds counts from 20 to 99 cfu per plate are reported as […]. Yeast and moulds counts of 100 cfu and above per plate are reported as >100 cfu/plate.
(§2) For determining the MIC, the tested microorganism, i.e. the strain of bacteria and/or strain of yeast and/or strain of mould, were freshly grown until the end of the logarithmic growth phase according to the requirements of the individual species to a density of approximately 10^7-10^9 cells/ml.
(§3) For example, fresh bacteria cultures of the bacteria E. coli, e.g. E. coli ATCC 11229, and S. aureus, e.g. S. aureus strains DSMZ 346, were prepared by inoculation of 3 ml liquid growth media (tryptic soy broth, e.g. Fluka Cat. No. 22092) from a stock culture and incubation for 16 to 20 h at 30° C. with agitation at 150 rotations per minutes (rpm) leading to a cell density of approximately 2×10^8 cells/ml. Fresh cultures of resistant bacteria, adapted to the conditions in biocide containing CaCO3 slurries, were prepared by inoculation of 50 g 75 wt.-% solid content CaCO3 slurry from a stock culture and incubated for 14 to 28 days at 30° C. without agitation.
(§4) Lithium ions were added to the aqueous preparation (e.g. CaCO3 slurry) by the addition of a water soluble lithium salt. For example to 50 g CaCO3 slurry with a solid content of 75% (w/w) 1.177 ml of a 74 g/Li2CO3 suspension was added and mixed well leading to a lithium ion concentration of 172 mM or 1205 ppm in the water phase. As another example to 50 g CaCO3 slurry with a solid content of 75 wt.-% (w/w) 0.04 ml of a 292 g/L Li3Citrate (2M) solution was added and mixed well leading to a lithium ion concentration of 19 mM or 135 ppm in the water phase.
(§5) The biocide to be tested was added to the aqueous preparation (e.g. CaCO3 slurry with or without lithium ions) in increasing concentrations starting from 0 ppm (without biocide). The concentrations ranged from concentrations higher than recommended by the supplier, to very low amounts (as low as 1 ppm or lower). Of each biocide concentration a 3 ml sample of aqueous preparation was combined with 20 μl fresh bacterial culture.
(§6) All samples were incubated at 30° C. for 24 h. After incubation colony forming units (cfu) per plate (cfu/plate) were determined as described above under bacterial count.
(§7) The MIC for bacteria is defined as the lowest concentration of biocide in the presence or absence of lithium ion amongst all samples tested, where the bacterial concentration dropped below 100 cfu/plate. The MIC for yeast and mould is defined as the lowest concentration of biocide in the presence or absence of lithium ion amongst all samples tested, where the microbial concentration dropped below 20 cfu/plate.

[1] = test system: S. aureus strain DSMZ 346; experiment: MIC determination / bacterial count in CaCO3 slurry with or without lithium ions; assay type: cell-based; details: for MIC: Staphylococcus aureus, DSMZ346, S. aureus, read-out: MIC active/aequeous
Method: as §1, §2, §3, §4, §5, §6, §7

E. coli strain ATCC11229 = experiment: as above; assay type: cell-based; details: for MIC ratio (MICwithout Li/MICLi): E. coli; for MIC: Escherichia coli; for bacterial count: E. coli ATCC11229, 88.5 ppm 4-chloro-3-methylphenol
Method: as §1, §2, §3, §4, §5, §6, §7

rOPP strain = experiment: MIC determination in CaCO3 slurry with or without lithium ions; assay type: cell-based, Pseudomonas mendocina; details: Li2CO3; for MIC: Ectopseudomonas mendocina, read-out: MIC active/aequeous, rOPP; for MIC ratio (MICwithout Li/MICLi): rOPP
Method: as §1, §2, §3, §4, §5, §6, §7

S. aureus = experiment: Curative MIC (bacteria added before biocide and lithium); assay type: cell-based; details: Curative treatment, Li^+ 329 mM (2305 ppm), Li2CO3
[2] = ATCC11229, read-out: MIC active/aequeous, E. coli, Li^+ 197 mM (1380 ppm), Li2CO3
[3] = ATCC11229, read-out: MIC active/aequeous, E. coli, no Li^+
[4] = S. aureus, Li^+ 423 mM (2964 ppm), Li2CO3
[5] = ATCC11229, read-out: MIC active/aequeous, E. coli, Li^+ 329 mM (2305 ppm), Li2CO3

SMILES: OC1OCCOC1O (stereo not shown) [1,6-Dihydroxy-2,5-dioxane]
- MIC (bacterial strain rOmyAK; Li^+ 197 mM (1380 ppm), Li2CO3): 8700 µM and 1060 µg/mL
- MIC (bacterial strain rOmyAK; Li^+ 423 mM (2964 ppm), Li2CO3): 5800 µM and 708 µg/mL
- MIC (bacterial strain rOmyAK; no Li^+): 3100 µM and > 1590 µg/mL
- MIC ratio (MICwithout Li/MICLi) (bacterial strain rOmyAK; Li^+ 197 mM (1380 ppm), Li2CO3): >1.5
- MIC ratio (MICwithout Li/MICLi) (bacterial strain rOmyAK; Li^+ 423 mM (2964 ppm), Li2CO3): >2.25

SMILES: Oc1ccccc1-c1ccccc1 [2-Phenylphenol (OPP), 2-Phenylphenol]
- MIC ratio (MICwithout Li/MICLi) ([1]; S. aureus, Li^+ 53 mM (370 ppm), Li2CO3): 2
- MIC ratio (MICwithout Li/MICLi) ([1]; S. aureus, Li^+ 67 mM (470 ppm), LiOH): 10
- MIC ([1]; Li^+ 53 mM (370 ppm), Li2CO3): 880 µM and 150 µg/mL
- MIC ([1]; Li^+ 67 mM (470 ppm), LiOH): 180 µM and 30 µg/mL
- MIC ([1]; no Li^+): 1760 µM and 300 µg/mL
- MIC ratio (MICwithout Li/MICLi) (E. coli strain ATCC11229; Li^+ 197 mM (1380 ppm), Li2CO3): 1.5
- MIC (E. coli strain ATCC11229; [2]): 2080 µM and 354 µg/mL
- MIC (E. coli strain ATCC11229; [3]): 3120 µM and 531 µg/mL
- MIC (rOPP strain; Li^+ 172 mM (1205 ppm)): 260 µM and 45 µg/mL
- MIC (rOPP strain; Li^+ 197 mM (1380 ppm)): 2080 µM and 354 µg/mL
- MIC (rOPP strain; Li^+ 329 mM (2305 ppm)): 1040 µM and 177 µg/mL
- MIC ratio (MICwithout Li/MICLi) (rOPP strain; Li^+ 172 mM (1205 ppm)): 2
- MIC ratio (MICwithout Li/MICLi) (rOPP strain; Li^+ 197 mM (1380 ppm)): >4.5
- MIC ratio (MICwithout Li/MICLi) (rOPP strain; Li^+ 329 mM (2305 ppm)): >9

SMILES: CN1CSC(=S)N(C)C1 [3.5-Dimethyltetrahydro-1,3,5-thiadiazine-2-]
- MIC ratio (MICwithout Li/MICLi) [1, 4]: >2.5
- MIC ([1]; Li^+ 423 mM (2964 ppm), Li2CO3): 440 µM and 70.8 µg/mL
- MIC ([1]; no Li^+): > 1090 µM and > 177 µg/mL
- MIC ratio (MICwithout Li/MICLi) (E. coli strain ATCC11229; Li^+ 329 mM (2305 ppm), Li2CO3): 1.25
- MIC (E. coli strain ATCC11229; [5]): 870 µM and 142 µg/mL
- MIC (E. coli strain ATCC11229; [3]): 1090 µM and 177 µg/mL

SMILES: Cc1cc(O)ccc1Cl [4-Chloro-3-methylphenol]
- MIC ratio (MICwithout Li/MICLi) [1, 4]: 1.5
- MIC ([1]; Li^+ 423 mM (2964 ppm), Li2CO3): 2480 µM and 354 µg/mL
- MIC ([1]; no Li^+): 3720 µM and 531 µg/mL
- bacterial count (E. coli strain ATCC11229; 197 mM Li^+): ≥100 cfu/plate
- bacterial count (E. coli strain ATCC11229; no Li^+): ≥1000 cfu/plate
- MIC ratio (MICwithout Li/MICLi) (E. coli strain ATCC11229; Li^+ 197 mM (1380 ppm), Li2CO3): 2
- MIC ratio (MICwithout Li/MICLi) (E. coli strain ATCC11229; Li^+ 329 mM (2305 ppm), Li2CO3): 4
- MIC (E. coli strain ATCC11229; [2]): 177 µg/mL and 1240 µM
- MIC (E. coli strain ATCC11229; [5]): 620 µM and 88.5 µg/mL
- MIC (E. coli strain ATCC11229; [3]): 354 µg/mL and 2480 µM

SMILES: O=c1[nH]sc2ccccc12 [Benzisothiazolinone (BIT), Benzisothiazolinone]
- MIC ratio (MICwithout Li/MICLi) (S. aureus): 2
- MIC ratio (MICwithout Li/MICLi) [1, 4]: >2

- MIC ratio (MICwithout Li/MICLi) ([1]; S. aureus, Li^+ 172 mM (1205 ppm), Li2CO3): 6
- MIC ratio (MICwithout Li/MICLi) ([1]; S. aureus, Li^+ 197 mM (1380 ppm), Li2CO3): 2
- MIC ratio (MICwithout Li/MICLi) ([1]; S. aureus, Li^+ 329 mM (2305 ppm), Li2CO3): 6
- MIC ratio (MICwithout Li/MICLi) [1, 4]: 20
- MIC ([1]; Li^+ 172 mM (1205 ppm), Li2CO3): 150 µM and 30 µg/mL
- MIC ([1]; Li^+ 197 mM (1380 ppm), Li2CO3): 450 µM and 90 µg/mL
- MIC ([1]; Li^+ 329 mM (2305 ppm), Li2CO3): 150 µM and 30 µg/mL
- MIC ([1]; Li^+ 423 mM (2964 ppm), Li2CO3): 50 µM and 9 µg/mL
- MIC ([1]; no Li^+): 900 µM and 180 µg/mL
- MIC ratio (MICwithout Li/MICLi) (E. coli strain ATCC11229; Li^+ 172 mM (1205 ppm), Li2CO3): >3.75
- MIC ratio (MICwithout Li/MICLi) (E. coli strain ATCC11229; Li^+ 197 mM (1380 ppm), Li2CO3): 3
- MIC (E. coli strain ATCC11229; ATCC11229, E. coli, Li^+ 172 mM (1205 ppm), Li2CO3, read-out: MIC active/aequeous): 120 µM and 24 µg/mL
- MIC (E. coli strain ATCC11229; ATCC11229, E. coli, Li^+ 197 mM (1380 ppm), Li2CO3, read-out: MIC active/aequeous): 180 µM and 35.4 µg/mL
- MIC (E. coli strain ATCC11229; ATCC11229, E. coli, no Li^+, read-out: MIC active/aequeous): 530 µM and 106 µg/mL
SMILES: O=[N+]([O-])C(Br)(CO)CO [Bronopol]

SMILES: C=O [Formaldehyde]
- MIC (bacterial strain rOmyAK; Li^+ 197 mM (1380 ppm), Li2CO3): 11800 µM and 354 µg/mL
- MIC (bacterial strain rOmyAK; no Li^+): > 35400 µM and > 1060 µg/mL
- MIC ratio (MICwithout Li/MICLi) (bacterial strain rOmyAK; Li^+ 197 mM (1380 ppm), Li2CO3): >3
- MIC ratio (MICwithout Li/MICLi) [1]: >10
- MIC ratio (MICwithout Li/MICLi) (E. coli strain ATCC11229; Li^+ 197 mM (1380 ppm), Li2CO3): >2
- MIC (E. coli strain ATCC11229; [2]): 590 µM and 17.7 µg/mL
- MIC (E. coli strain ATCC11229; [3]): > 1180 µM and > 35.4 µg/mL
